Legend:
[1] = test system: Aphis craccivora (nymphs); experiment: Action against Aphis craccivora (nymphs), bean leaf disks; format: in vivo; conditions: foliar, 96 h, Table B4, Pyroquilon 1 ppm, WP 25, nymphs on bean leaf disks, after four days
Description: Fourteen day old bean plants (Vicia faba var. Wittkiens) were sprayed with 60 ml sample solution. The following day 3.5 cm leaf disks were cut and placed in petri dishes containing 2 ml agar (2%) and 5-10 adult aphids placed on the leaves. Petri dishes were covered with gauze and closed with a lid and placed up-side down. The following day all adult aphids were removed and only nymphs left on the leaf at a temperature of 20° C., 60% relative humidity and 16L:8D conditions. Assessment of dead and alife aphids performed after four days. (3 replicates per treatment).

[2] = test system: Spodoptera littoralis L2; experiment: Action against Spodoptera littoralis L2 (sprayed cotton leaves, petri dish); format: in vivo; conditions: 96 h
Description: The following day leaves were placed in petri dishes containing a moist filter paper and 10 L2 larvae placed on the leaves. Petri dishes were covered with gauze and closed with a lid and left at a temperature of 25° C., 40-60% relative humidity and 16L:8D conditions. Assessment of dead and alife larvae was performed after four days. (30 insects assessed per treatment).

## O=C1CCc2cccc3c2N1CC3 [Pyroquilon, pyroquilon]
[1]
  mortality at 1 ppm: 3.3%
[2]; Table B1, Pyroquilon 1 ppm, WP 25, L2 larvae on cotton leaves, after four days
  mortality at 1 ppm: 6.7%
[2]; Table B3, Pyroquilon 10 ppm, WP 25, after four days
  mortality at 10 ppm: 6.7%

Reference: US20080262044A1, “Pesticidal Mixtures” (Syngenta Participations AG, priority 2005, published 2008)
